Measured values: patent US10501461B2, “Tyrosine amide derivatives as Rho-kinase inhibitors” (CHIESI FARMACEUTICI S.P.A., priority 2017, dated 2019)
pKi: −log10 of the molar value.

Legend:
Rho kinase 1 (ROCK-I) = Rho kinase 1 (ROCK-I) (Homo sapiens, UniProt Q13464); assay: In vitro Rho kinase inhibitory activity assay (ADP-Glo), Rho kinase 1; type: biochemical; conditions: 10 μM ATP, 25° C., expressed as range of activity
Procedure, shortened: (§1)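 ADP-Glo luminescence read-out. Enzyme (ROCK1 or ROCK2) + compound 30 min, then 10 μM ATP final, 1 h, 25 °C; 2.5 μM MBP peptide substrate, Tris pH7.5/MgCl2/BSA/DTT buffer, 1% DMSO. IC50 from variable-slope fit (0–100% fixed); Ki via Cheng-Prusoff.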

Rho kinase 2 (ROCK-II) = Rho kinase 2 (ROCK-II) (Homo sapiens, UniProt O75116); assay: In vitro Rho kinase inhibitory activity assay (ADP-Glo), Rho kinase 2; type: biochemical; conditions: 10 μM ATP, 25° C., expressed as range of activity
Procedure, shortened: as §1

Rho kinase 2 (ROCK-II), sequence (O75116 whole entry): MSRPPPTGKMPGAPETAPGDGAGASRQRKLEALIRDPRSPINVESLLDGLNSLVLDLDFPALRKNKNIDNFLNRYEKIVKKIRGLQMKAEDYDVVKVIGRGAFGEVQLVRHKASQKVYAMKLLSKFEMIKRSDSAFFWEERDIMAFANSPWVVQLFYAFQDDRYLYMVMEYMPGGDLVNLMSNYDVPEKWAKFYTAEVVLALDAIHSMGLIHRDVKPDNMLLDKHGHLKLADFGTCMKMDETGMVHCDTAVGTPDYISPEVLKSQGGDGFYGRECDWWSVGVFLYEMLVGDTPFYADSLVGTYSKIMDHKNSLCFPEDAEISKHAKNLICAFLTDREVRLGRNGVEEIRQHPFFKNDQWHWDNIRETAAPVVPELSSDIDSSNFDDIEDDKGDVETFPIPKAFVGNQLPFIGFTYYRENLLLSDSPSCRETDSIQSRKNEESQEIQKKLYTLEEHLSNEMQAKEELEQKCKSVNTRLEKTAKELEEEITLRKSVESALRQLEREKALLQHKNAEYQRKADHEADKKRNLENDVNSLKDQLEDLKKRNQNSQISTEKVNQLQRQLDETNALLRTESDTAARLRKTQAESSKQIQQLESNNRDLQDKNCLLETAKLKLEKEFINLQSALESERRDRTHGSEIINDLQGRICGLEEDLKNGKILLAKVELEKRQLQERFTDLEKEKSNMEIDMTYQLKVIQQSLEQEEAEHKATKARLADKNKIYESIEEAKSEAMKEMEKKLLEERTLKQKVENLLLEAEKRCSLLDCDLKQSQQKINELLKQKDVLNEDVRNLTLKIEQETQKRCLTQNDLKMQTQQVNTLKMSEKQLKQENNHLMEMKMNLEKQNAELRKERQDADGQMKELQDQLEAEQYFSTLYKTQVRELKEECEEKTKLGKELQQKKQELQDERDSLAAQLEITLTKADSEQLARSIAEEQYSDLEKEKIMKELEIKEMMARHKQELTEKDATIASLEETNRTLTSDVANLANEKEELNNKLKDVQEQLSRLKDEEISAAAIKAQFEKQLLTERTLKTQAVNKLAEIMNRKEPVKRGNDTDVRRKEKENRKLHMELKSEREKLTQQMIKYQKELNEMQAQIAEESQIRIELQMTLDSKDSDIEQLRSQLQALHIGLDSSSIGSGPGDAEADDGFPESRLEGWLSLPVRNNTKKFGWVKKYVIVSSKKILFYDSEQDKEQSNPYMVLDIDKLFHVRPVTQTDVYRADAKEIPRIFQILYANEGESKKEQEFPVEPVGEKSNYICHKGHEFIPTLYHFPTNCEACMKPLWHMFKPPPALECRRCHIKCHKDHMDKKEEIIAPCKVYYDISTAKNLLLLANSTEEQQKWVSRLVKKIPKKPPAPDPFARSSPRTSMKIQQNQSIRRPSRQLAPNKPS
Rho kinase 1 (ROCK-I), sequence (Q13464 whole entry): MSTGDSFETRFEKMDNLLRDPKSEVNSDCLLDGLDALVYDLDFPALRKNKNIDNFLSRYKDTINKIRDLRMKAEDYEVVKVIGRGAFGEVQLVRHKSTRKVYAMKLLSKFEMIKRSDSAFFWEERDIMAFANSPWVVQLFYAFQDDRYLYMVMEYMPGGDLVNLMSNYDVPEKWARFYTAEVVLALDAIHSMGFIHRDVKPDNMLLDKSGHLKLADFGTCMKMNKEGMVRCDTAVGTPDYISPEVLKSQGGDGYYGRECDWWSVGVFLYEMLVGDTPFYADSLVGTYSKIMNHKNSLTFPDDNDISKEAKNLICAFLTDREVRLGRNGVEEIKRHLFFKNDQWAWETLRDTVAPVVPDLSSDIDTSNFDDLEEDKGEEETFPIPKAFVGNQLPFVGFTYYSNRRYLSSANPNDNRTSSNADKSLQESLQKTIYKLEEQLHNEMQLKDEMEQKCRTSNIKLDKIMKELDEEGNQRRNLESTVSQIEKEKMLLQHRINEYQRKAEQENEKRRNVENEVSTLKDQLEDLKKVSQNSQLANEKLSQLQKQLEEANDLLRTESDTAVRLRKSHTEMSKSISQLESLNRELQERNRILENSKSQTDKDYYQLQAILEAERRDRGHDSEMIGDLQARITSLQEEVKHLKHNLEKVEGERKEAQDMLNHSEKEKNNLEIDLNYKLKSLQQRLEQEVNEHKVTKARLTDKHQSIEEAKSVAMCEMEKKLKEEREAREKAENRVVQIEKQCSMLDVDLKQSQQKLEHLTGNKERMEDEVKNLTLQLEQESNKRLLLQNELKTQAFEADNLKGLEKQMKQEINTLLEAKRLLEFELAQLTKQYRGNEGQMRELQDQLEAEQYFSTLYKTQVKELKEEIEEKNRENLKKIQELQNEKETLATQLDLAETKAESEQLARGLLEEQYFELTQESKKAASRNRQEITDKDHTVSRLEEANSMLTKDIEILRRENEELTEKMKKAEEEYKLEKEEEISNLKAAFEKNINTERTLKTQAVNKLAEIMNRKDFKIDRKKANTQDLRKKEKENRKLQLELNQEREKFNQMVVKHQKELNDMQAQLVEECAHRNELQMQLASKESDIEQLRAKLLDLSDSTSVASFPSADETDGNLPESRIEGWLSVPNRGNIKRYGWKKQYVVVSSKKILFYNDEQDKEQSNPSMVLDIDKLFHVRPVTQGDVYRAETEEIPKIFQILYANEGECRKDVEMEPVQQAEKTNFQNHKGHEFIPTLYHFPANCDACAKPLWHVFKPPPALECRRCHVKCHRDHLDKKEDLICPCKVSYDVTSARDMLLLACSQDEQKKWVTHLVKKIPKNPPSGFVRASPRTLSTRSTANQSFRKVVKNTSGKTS

| Structure (SMILES) | pKi (Rho kinase 1 (ROCK-I)) | pKi (Rho kinase 2 (ROCK-II)) |
| --- | --- | --- |
| Cc1c[nH]c2nccc(Oc3ccc(CC(N)C(=O)NC4Cc5ccccc5C4)cc3F)c12 (stereo not drawn) [Example 63, 2-amino-N-(2,3-dihydro-1H-inden-2-yl)-3-(3-fluoro-4-((3-methyl-1H-pyrrolo[2,3-b]pyridin-4-yl)oxy)phenyl)propanamide] | > 8.52 | > 8.52 |
| Cc1c[nH]c2nccc(Oc3ccc(CC(N)C(=O)N4CCN(C)CC4CO)cc3F)c12 (stereo not drawn) [Example 64, 2-amino-3-(3-fluoro-4-((3-methyl-1H-pyrrolo[2,3-b]pyridin-4-yl)oxy)phenyl)-1-(2-(hydroxymethyl)-4-methylpiperazin-1-yl)propan-1-one] | 7.52 to 8.52 | > 8.52 |
| Cc1c[nH]c2nccc(Oc3ccc(CC(N)C(=O)N4CCc5ccncc5C4)cc3F)c12 (stereo not drawn) [Example 67, 2-amino-1-(3,4-dihydro-2,7-naphthyridin-2(1H)-yl)-3-(3-fluoro-4-((3-methyl-1H-pyrrolo[2,3-b]pyridin-4-yl)oxy)phenyl)propan-1-one] | > 8.52 | > 8.52 |
| Cc1ccc(CN2CCN(C(=O)C(N)Cc3ccc(Oc4ccnc5[nH]cc(C)c45)c(F)c3)CC2)cc1 (stereo not drawn) [Example 72, 2-amino-3-(3-fluoro-4-((3-methyl-1H-pyrrolo[2,3-b]pyridin-4-yl)oxy)phenyl)-1-(4-(4-methylbenzyl)piperazin-1-yl)propan-1-one] | > 8.52 | > 8.52 |
| Cc1cccc(CN2CCN(C(=O)C(N)Cc3ccc(Oc4ccnc5[nH]cc(C)c45)c(F)c3)CC2)c1 (stereo not drawn) [Example 73, 2-amino-3-(3-fluoro-4-((3-methyl-1H-pyrrolo[2,3-b]pyridin-4-yl)oxy)phenyl)-1-(4-(3-methylbenzyl)piperazin-1-yl)propan-1-one] | > 8.52 | > 8.52 |
| Cc1c[nH]c2nccc(Oc3ccc(CC(N)C(=O)N4CCN(Cc5ccc(F)cc5)CC4)cc3F)c12 (stereo not drawn) [Example 74, 2-amino-3-(3-fluoro-4-((3-methyl-1H-pyrrolo[2,3-b]pyridin-4-yl)oxy)phenyl)-1-(4-(4-fluorobenzyl)piperazin-1-yl)propan-1-one] | > 8.52 | > 8.52 |
| Cc1c[nH]c2nccc(Oc3ccc(CC(N)C(=O)N4CCCCC4)cc3F)c12 (stereo not drawn) [Example 77, 2-amino-3-(3-fluoro-4-((3-methyl-1H-pyrrolo[2,3-b]pyridin-4-yl)oxy)phenyl)-1-(piperidin-1-yl)propan-1-one] | > 8.52 | > 8.52 |
| Cc1c[nH]c2nccc(Oc3ccc(CC(N)C(=O)NCCCN4CCOCC4)cc3F)c12 (stereo not drawn) [Example 79, 2-amino-3-(3-fluoro-4-((3-methyl-1H-pyrrolo[2,3-b]pyridin-4-yl)oxy)phenyl)-N-(3-morpholinopropyl)propanamide] | > 8.52 | > 8.52 |
| Cc1c[nH]c2nccc(Oc3ccc(CC(N)C(=O)N4CCN(c5ccccn5)CC4)cc3F)c12 (stereo not drawn) [Example 80, 2-amino-3-(3-fluoro-4-((3-methyl-1H-pyrrolo[2,3-b]pyridin-4-yl)oxy)phenyl)-1-(4-(pyridin-2-yl)piperazin-1-yl)propan-1-one] | > 8.52 | > 8.52 |
| Cc1c[nH]c2nccc(Oc3ccc(CC(N)C(=O)N4CCn5cncc5C4)cc3F)c12 (stereo not drawn) [Example 81, 2-amino-1-(5,6-dihydroimidazo[1,5-a]pyrazin-7(8H)-yl)-3-(3-fluoro-4-((3-methyl-1H-pyrrolo[2,3-b]pyridin-4-yl)oxy)phenyl)propan-1-one] | > 8.52 | > 8.52 |
| Cc1c[nH]c2nccc(Oc3ccc(CC(N)C(=O)NC4CCN(Cc5ccccc5)CC4)cc3F)c12 (stereo not drawn) [Example 83, 2-amino-N-(1-benzylpiperidin-4-yl)-3-(3-fluoro-4-((3-methyl-1H-pyrrolo[2,3-b]pyridin-4-yl)oxy)phenyl)propanamide] | > 8.52 | > 8.52 |
| Cc1cc2c(Oc3ccc(C[C@H](N)C(=O)N4CCN(Cc5ccccc5)CC4)cc3F)ccnc2[nH]1 [Example 86, (S)-2-amino-1-(4-benzylpiperazin-1-yl)-3-(3-fluoro-4-((2-methyl-1H-pyrrolo[2,3-b]pyridin-4-yl)oxy)phenyl)propan-1-one] | < 7.52 | < 7.52 |
| CN(CC1CCCCC1)C(=O)[C@@H](N)Cc1ccc(Oc2ccnc3[nH]ccc23)cc1 [Example 92, (S)-3-(4-((1H-pyrrolo[2,3-b]pyridin-4-yl)oxy)phenyl)-2-amino-N-(cyclohexylmethyl)-N-methylpropanamide] | 7.52 to 8.52 | 7.52 to 8.52 |

Results, then the compound that gave them:

| pKi (Rho kinase 1 (ROCK-I)) | pKi (Rho kinase 2 (ROCK-II)) | Structure (SMILES) |
| --- | --- | --- |
| > 8.52 | > 8.52 | Cc1c[nH]c2nccc(Oc3ccc(CC(N)C(=O)NCc4ccc(CO)cc4)cc3F)c12 (stereo not drawn) [Example 62, 2-amino-3-(3-fluoro-4-((3-methyl-1H-pyrrolo[2,3-b]pyridin-4-yl)oxy)phenyl)-N-(4-(hydroxymethyl)benzyl)propanamide] |
| > 8.52 | > 8.52 | Cc1c[nH]c2nccc(Oc3ccc(CC(N)C(=O)N4Cc5ccncc5C4)cc3F)c12 (stereo not drawn) [Example 65, 2-amino-3-(3-fluoro-4-((3-methyl-1H-pyrrolo[2,3-b]pyridin-4-yl)oxy)phenyl)-1-(1H-pyrrolo[3,4-c]pyridin-2(3H)-yl)propan-1-one] |
| > 8.52 | > 8.52 | COCCCNC(=O)C(N)Cc1ccc(Oc2ccnc3[nH]cc(C)c23)c(F)c1 (stereo not drawn) [Example 68, 2-amino-3-(3-fluoro-4-((3-methyl-1H-pyrrolo[2,3-b]pyridin-4-yl)oxy)phenyl)-N-(3-methoxypropyl)propanamide] |
| > 8.52 | > 8.52 | Cc1c[nH]c2nccc(Oc3ccc(CC(N)C(=O)NCCc4ccccn4)cc3F)c12 (stereo not drawn) [Example 69, 2-amino-3-(3-fluoro-4-((3-methyl-1H-pyrrolo[2,3-b]pyridin-4-yl)oxy)phenyl)-N-(2-(pyridin-2-yl)ethyl)propanamide] |
| > 8.52 | > 8.52 | Cc1c[nH]c2nccc(Oc3ccc(CC(N)C(=O)Nc4cccnc4)cc3F)c12 (stereo not drawn) [Example 70, 2-amino-3-(3-fluoro-4-((3-methyl-1H-pyrrolo[2,3-b]pyridin-4-yl)oxy)phenyl)-N-(pyridin-3-yl)propanamide] |
| > 8.52 | > 8.52 | Cc1c[nH]c2nccc(Oc3ccc(CC(N)C(=O)Nc4ccncc4)cc3F)c12 (stereo not drawn) [Example 71, 2-amino-3-(3-fluoro-4-((3-methyl-1H-pyrrolo[2,3-b]pyridin-4-yl)oxy)phenyl)-N-(pyridin-4-yl)propanamide] |
| > 8.52 | > 8.52 | COc1ccc(CN2CCN(C(=O)C(N)Cc3ccc(Oc4ccnc5[nH]cc(C)c45)c(F)c3)CC2)cc1 (stereo not drawn) [Example 75, 2-amino-3-(3-fluoro-4-((3-methyl-1H-pyrrolo[2,3-b]pyridin-4-yl)oxy)phenyl)-1-(4-(4-methoxybenzyl)piperazin-1-yl)propan-1-one] |
| > 8.52 | > 8.52 | Cc1c[nH]c2nccc(Oc3ccc(CC(N)C(=O)NCCc4ccccc4)cc3F)c12 (stereo not drawn) [Example 76, 2-amino-3-(3-fluoro-4-((3-methyl-1H-pyrrolo[2,3-b]pyridin-4-yl)oxy)phenyl)-N-phenethylpropanamide] |
| > 8.52 | > 8.52 | Cc1c[nH]c2nccc(Oc3ccc(CC(N)C(=O)Nc4cccc5cnccc45)cc3F)c12 (stereo not drawn) [Example 78, 2-amino-3-(3-fluoro-4-((3-methyl-1H-pyrrolo[2,3-b]pyridin-4-yl)oxy)phenyl)-N-(isoquinolin-5-yl)propanamide] |
| > 8.52 | > 8.52 | Cc1c[nH]c2nccc(Oc3ccc(CC(N)C(=O)NCC4CCN(Cc5ccccc5)CC4)cc3F)c12 (stereo not drawn) [Example 82, 2-amino-N-((1-benzylpiperidin-4-yl)methyl)-3-(3-fluoro-4-((3-methyl-1H-pyrrolo[2,3-b]pyridin-4-yl)oxy)phenyl)propanamide] |
| > 8.52 | > 8.52 | COCCCNC(=O)[C@@H](N)Cc1ccc(Oc2ccnc3[nH]cc(C)c23)cc1 [Example 87, (S)-2-amino-N-(3-methoxylpropyl)-3-(4-((3-methyl-1H-pyrrolo[2,3-b]pyridin-4-yl)oxy)phenyl)propanamide] |
| > 8.52 | > 8.52 | Cc1c[nH]c2nccc(Oc3ccc(C[C@H](N)C(=O)N4CCN(Cc5ccccc5)CC4)cc3)c12 [Example 88, (S)-2-amino-1-(4-benzylpiperazin-1-yl)-3-(4-((3-methyl-1H-pyrrolo[2,3-b]pyridin-4-yl)oxy)phenyl)propan-1-one] |
| > 8.52 | > 8.52 | Cc1c[nH]c2nccc(Oc3ccc(C[C@H](N)C(=O)NCCc4ccncc4)cc3)c12 [Example 89, (S)-2-amino-3-(4-((3-methyl-1H-pyrrolo[2,3-b]pyridin-4-yl)oxy)phenyl)-N-(2-(pyridin-4-yl)ethyl)propanamide] |
| > 8.52 | > 8.52 | Cc1c[nH]c2nccc(Oc3ccc(C[C@H](N)C(=O)NC4CCOCC4)cc3)c12 [Example 90, (S)-2-amino-3-(4-((3-methyl-1H-pyrrolo[2,3-b]pyridin-4-yl)oxy)phenyl)-N-(tetrahydro-2H-pyran-4-yl)propanamide] |
| 7.52 to 8.52 | > 8.52 | NC(Cc1ccc(Oc2ccnc3[nH]ccc23)cc1)C(=O)Nc1ccc(C(F)(F)F)cc1 (stereo not drawn) [Example 91, 3-(4-((1H-pyrrolo[2,3-b]pyridin-4-yl)oxy)phenyl)-2-amino-N-(4-(trifluoromethyl)phenyl)propanamide] |
| 7.52 to 8.52 | 7.52 to 8.52 | CN(Cc1ccccc1)C(=O)[C@@H](N)Cc1ccc(Oc2ccnc3[nH]ccc23)cc1 [Example 93, (S)-3-(4-((1H-pyrrolo[2,3-b]pyridin-4-yl)oxy)phenyl)-2-amino-N-benzyl-N-methylpropanamide] |
| > 8.52 | > 8.52 | N[C@@H](Cc1ccc(Oc2ccnc3[nH]ccc23)cc1)C(=O)Nc1ccc(Cl)nc1 [Example 94, (S)-3-(4-((1H-pyrrolo[2,3-b]pyridin-4-yl)oxy)phenyl)-2-amino-N-(6-chloropyridin-3-yl)propanamide] |
